In patent publication US10973823B2, “Anti-cancer composition consisting of halofuginone and sesquiterpene lactone compounds of artemisia apiacea and use thereof” (Hong Kong Baptist University, priority 2016, dated 2021):

Experiments:
Settings in all cases: alone or combined, 24 hours
[1] = tested on: colon cancer cell HCT-116; assay: MTT assay, colon cancer cell HCT-116; assay type: cell-based, Human
Protocol: Human colon cancer cell line HCT-116 was seeded on a 96-well plate, with 100 μl of cell suspension in each well. The culture medium was DMEM supplemented with 10% FBS and 2 mM glutamate. […] 24 hours after adding the compound, the cell survival rate was assessed using the MTT assay, and the combination index (CI) of the combined pharmaceutical of HF and ATS was calculated using the Calcusyn software. Tumor cell survival rate=the OD value of the experimental group/the OD value of the control group×100%

[2] = tested on: breast cancer cell MCF-7; assay: MTT assay, breast cancer cell MCF-7; assay type: cell-based
Protocol: Breast cancer cell line MCF-7 was seeded on a 96-well plate, with 100 μl of cell suspension in each well. The culture medium was DMEM supplemented with 10% FBS and 2 mM glutamate. […] 24 hours after adding the compound, the cell survival rate was assessed using the MTT assay, and the combination index (CI) of the combined pharmaceutical of HF and ATS was calculated using the Calcusyn software.

[3] = tested on: liver cancer cell HepG2; assay: MTT assay, liver cancer cell HepG2; assay type: cell-based
Protocol: Liver cancer cell line HepG2 was seeded on a 96-well plate, with 100 μl of cell suspension in each well. The culture medium was DMEM supplemented with 10% FBS and 2 mM glutamate. […] 24 hours after adding the compound, the cell survival rate was assessed using the MTT assay, and the combination index (CI) of the combined pharmaceutical of HF and ATS was calculated using the Calcusyn software.

[4] = tested on: gastric cancer cell MGC803; assay: MTT assay, gastric cancer cell MGC803; assay type: cell-based
Protocol: Gastric cancer cell line MGC803 was seeded on a 96-well plate, with 100 μl of cell suspension in each well. The culture medium was DMEM supplemented with 10% FBS and 2 mM glutamate. […] 24 hours after adding the compound, the cell survival rate was assessed using the MTT assay, and the combination index (CI) of the combined pharmaceutical of HF and ATS was calculated using the Calcusyn software.

[5] = tested on: melanoma cell A375; assay: MTT assay, melanoma cell A375; assay type: cell-based
Protocol: Melanoma cell line A375 was seeded on a 96-well plate, with 100 μl of cell suspension in each well. The culture medium was DMEM supplemented with 10% FBS and 2 mM glutamate. […] 24 hours after adding the compound, the cell survival rate was assessed using the MTT assay, and the combination index (CI) of the combined pharmaceutical of HF and ATS was calculated using the Calcusyn software.

[6] = HF 10 nM, ATS/DAT/ASU/ATM 160 μM
[7] = HF 20 nM, ATS/DAT/ASU/ATM 320 μM
[8] = HF 40 nM, ATS/DAT/ASU/ATM 640 μM

C[C@H]1[C@H](OC(=O)CCC(=O)O)O[C@@H]2O[C@@]3(C)CC[C@H]4[C@H](C)CC[C@@H]1[C@@]24OO3 [ASU, artesunate]
Cell death rate (%) [1, 6]: 35.15 ± 3.45% | Cell death rate (%) [1, 7]: 48.31 ± 3.69% | Cell death rate (%) [1, 8]: 53.52 ± 2.46% | Cell death rate (%) ([2]; HF 10 nM, lactone 160 μM): 9.15 ± 0.92% | Cell death rate (%) ([2]; HF 20 nM, lactone 320 μM): 16.31 ± 1.69% | Cell death rate (%) ([2]; HF 40 nM, lactone 640 μM): 33.57 ± 2.56% | Cell death rate (%) ([3]; HF 10 nM, lactone 160 μM): 0.95 ± 0.72% | Cell death rate (%) ([3]; HF 20 nM, lactone 320 μM): 1.86 ± 0.09% | Cell death rate (%) ([3]; HF 40 nM, lactone 640 μM): 6.57 ± 2.06% | Cell death rate (%) ([4]; HF 10 nM, lactone 160 μM): 1.15 ± 0.92% | Cell death rate (%) ([4]; HF 20 nM, lactone 320 μM): 5.31 ± 1.69% | Cell death rate (%) ([4]; HF 40 nM, lactone 640 μM): 43.57 ± 2.56% | Cell death rate (%) ([5]; HF 10 nM, lactone 160 μM): 16.15 ± 4.90% | Cell death rate (%) ([5]; HF 40 nM, lactone 640 μM): 47.59 ± 3.93%

CO[C@H]1O[C@@H]2O[C@@]3(C)CC[C@H]4[C@H](C)CC[C@@H]([C@H]1C)[C@@]24OO3 [ATM, artemether]
Cell death rate (%) [1, 6]: 33.17 ± 4.46% | Cell death rate (%) [1, 7]: 46.32 ± 3.45% | Cell death rate (%) [1, 8]: 54.50 ± 2.50%

C[C@@H]1CC[C@H]2[C@@H](C)C(=O)O[C@@H]3O[C@@]4(C)CC[C@@H]1[C@]32OO4 [ATS, Artemisinin]
Cell death rate (%) [1, 6]: 35.89 ± 3.91% | Cell death rate (%) [1, 7]: 48.31 ± 3.61% | Cell death rate (%) [1, 8]: 54.42 ± 2.44% | Cell death rate (%) ([2]; HF 10 nM, lactone 160 μM): 9.50 ± 0.77% | Cell death rate (%) ([2]; HF 20 nM, lactone 320 μM): 16.50 ± 1.47% | Cell death rate (%) ([2]; HF 40 nM, lactone 640 μM): 33.90 ± 2.00% | Cell death rate (%) ([3]; HF 10 nM, lactone 160 μM): 0.90 ± 0.95% | Cell death rate (%) ([3]; HF 20 nM, lactone 320 μM): 1.60 ± 0.08% | Cell death rate (%) ([3]; HF 40 nM, lactone 640 μM): 6.40 ± 2.71% | Cell death rate (%) ([4]; HF 10 nM, lactone 160 μM): 1.00 ± 3.31% | Cell death rate (%) ([4]; HF 20 nM, lactone 320 μM): 4.60 ± 5.51% | Cell death rate (%) ([4]; HF 40 nM, lactone 640 μM): 40.00 ± 3.18% | Cell death rate (%) ([5]; HF 10 nM, lactone 160 μM): 16.50 ± 4.30% | Cell death rate (%) ([5]; HF 20 nM, lactone 320 μM): 26.30 ± 1.33% | Cell death rate (%) ([5]; HF 40 nM, lactone 640 μM): 46.50 ± 3.57%

C[C@H]1[C@@H](O)O[C@@H]2O[C@@]3(C)CC[C@H]4[C@H](C)CC[C@@H]1[C@@]24OO3 [DAT, dihydroartemisinin]
Cell death rate (%) [1, 6]: 36.80 ± 3.33% | Cell death rate (%) [1, 7]: 47.32 ± 3.65% | Cell death rate (%) [1, 8]: 55.57 ± 2.43% | Cell death rate (%) ([2]; HF 10 nM, lactone 160 μM): 8.81 ± 0.83% | Cell death rate (%) ([2]; HF 20 nM, lactone 320 μM): 16.32 ± 1.65% | Cell death rate (%) ([2]; HF 40 nM, lactone 640 μM): 32.59 ± 2.43% | Cell death rate (%) ([3]; HF 10 nM, lactone 160 μM): 0.81 ± 0.83% | Cell death rate (%) ([3]; HF 20 nM, lactone 320 μM): 1.72 ± 0.15% | Cell death rate (%) ([3]; HF 40 nM, lactone 640 μM): 6.59 ± 2.58% | Cell death rate (%) ([4]; HF 10 nM, lactone 160 μM): 1.81 ± 0.83% | Cell death rate (%) ([4]; HF 20 nM, lactone 320 μM): 5.32 ± 1.65% | Cell death rate (%) ([4]; HF 40 nM, lactone 640 μM): 42.59 ± 2.43% | Cell death rate (%) ([5]; HF 10 nM, lactone 160 μM): 16.81 ± 5.83% | Cell death rate (%) ([5]; HF 20 nM, lactone 320 μM): 26.35 ± 1.64% | Cell death rate (%) ([5]; HF 40 nM, lactone 640 μM): 42.55 ± 4.42%

O=C(CC1NCCCC1O)Cn1cnc2cc(Br)c(Cl)cc2c1=O (centres unmarked) [HF, Halofuginone]
Cell death rate (%) [1, 6]: 19.41 ± 4.03% | Cell death rate (%) [1, 7]: 33.06 ± 3.32% | Cell death rate (%) [1, 8]: 59.27 ± 0.41% | Cell death rate (%) ([2]; HF 10 nM, lactone 160 μM): 2.00 ± 1.28% | Cell death rate (%) ([2]; HF 20 nM, lactone 320 μM): 3.00 ± 0.55% | Cell death rate (%) ([2]; HF 40 nM, lactone 640 μM): 9.10 ± 1.79% | Cell death rate (%) ([3]; HF 10 nM, lactone 160 μM): 0.70 ± 3.11% | Cell death rate (%) ([3]; HF 20 nM, lactone 320 μM): 1.00 ± 2.06% | Cell death rate (%) ([3]; HF 40 nM, lactone 640 μM): 4.00 ± 2.21% | Cell death rate (%) ([4]; HF 10 nM, lactone 160 μM): 8.10 ± 2.77% | Cell death rate (%) ([4]; HF 20 nM, lactone 320 μM): 20.00 ± 4.18% | Cell death rate (%) ([4]; HF 40 nM, lactone 640 μM): 29.00 ± 3.31% | Cell death rate (%) ([5]; HF 10 nM, lactone 160 μM): 5.70 ± 5.44% | Cell death rate (%) ([5]; HF 20 nM, lactone 320 μM): 17.70 ± 2.82% | Cell death rate (%) ([5]; HF 40 nM, lactone 640 μM): 35.70 ± 4.76%
